Structures are written as SMILES. Where only a bound is given, the exact number is not on record here.

The target of the first assay is T1, MEK1^CA (human GST-MEK1, constitutively active, Ser218Asp and Ser222Asp) (Homo sapiens, UniProt Q02750, S218D/S222D).
T1 construct: GST; made in house; host or cells: Escherichia coli
T1 sequence (Q02750 whole entry S218D/S222D): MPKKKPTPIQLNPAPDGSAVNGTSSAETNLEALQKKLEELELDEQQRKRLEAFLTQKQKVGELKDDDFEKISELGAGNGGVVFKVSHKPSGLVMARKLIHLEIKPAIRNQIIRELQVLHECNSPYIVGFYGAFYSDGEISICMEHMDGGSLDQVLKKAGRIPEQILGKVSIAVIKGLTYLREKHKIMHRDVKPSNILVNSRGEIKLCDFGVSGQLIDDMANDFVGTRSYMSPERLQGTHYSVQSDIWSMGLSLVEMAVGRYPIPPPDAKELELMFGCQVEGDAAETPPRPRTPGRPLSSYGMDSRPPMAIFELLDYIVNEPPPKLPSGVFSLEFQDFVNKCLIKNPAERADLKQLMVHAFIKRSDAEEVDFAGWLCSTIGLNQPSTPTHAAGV
In words: MEK1 enzymatic activity assay (MEK1^CA / ERK2 / MBP, [γ-33P]ATP incorporation). The assay is classed as biochemical. As to conditions: Table 1, compounds of formula I; read-out: Avg IC50. An excerpt: Materials and preparation of reagents: Human GST-MEK1 and the constitutively active allele GST-MEK1^CA (harboring the mutations Ser218Asp and Ser222Asp) were subcloned into the […] expression vector pGEM4Z (Promega, Madison, Wis.) from the wild type human MEK1 cDNA. GST-MEK1^CA was expressed in Escherichia coli and partially purified using Glutathione Sepharose 4B affinity resin (Amersham Pharmacia Biotech, Piscataway, N.J.). The ERK2 allele was subcloned from MAPK2/Erk2 cDNA (wild type) in pUSEamp (Upstate Biotechnology, Inc., Waltham, Mass.) into the vector pET21a (Novagen, Madison, Wis.) resulting in an N-terminal histidine-tagged mouse ERK2 allele. […] Myelin basic protein (MBP) was purchased from Gibco BRL (Rockville, Md.). EasyTides adenosine 5′-triphosphate (ATP) ([γ-^33P]) (NEN Perkin Elmer, Wellesley, Mass.) was the source of radiolabel for all kinase reactions. Activated Raf-1 (truncated) and activated MAPKinase 2/ERK2 were purchased from Upstate, Inc. (Lake Placid, N.Y.). 4-20% Criterion Precast gels were purchased from Bio-Rad (Hercules, Calif.).
A typical 25-microliter assay contained 0.002 nanomoles MEK1^CA, 0.02 nanomoles ERK2, 0.25 nanomoles MBP, 0.25 nanomoles unlabeled ATP, and 0.1 μCi [γ^33P] ATP. The screening assay essentially comprised four additions. Five μl of diluted compound were dispensed to 96-well assay plates. Ten μl of 2.5× enzyme cocktail (MEK1^CA and ERK2 only) were then added to each well followed by a pre-incubation for 30 minutes at ambient temperature. […] Finally, 100 μl of 10% trichloroacetic acid (TCA) were added and incubated for 30 minutes at room temperature to halt the reaction and precipitate radiolabeled protein products. Reaction products were harvested on glass fiber 96 well filter plates prewetted with water and 1% pyrophosphate. The filter plate was then washed 5 times with water. Water was displaced by absolute ethanol and the plate was allowed to air dry for 30 minutes at room temperature. A back seal was applied manually and 40 μl of scintillation cocktail were dispensed to each well. A top seal was applied and the plate was counted in the TopCount for two seconds per well.
Consider `CNC(=N)c1c(O)nsc1Nc1ccc(C)cc1` [Cpd 1], for which the IC50 was in the range of 100 to 500 nM.
The same measure, in the same setting: for `Cc1ccc(Nc2snc(O)c2C(=N)NC2CCCC2)cc1` [Cpd 2] the value was 100 to 500 nM; for `Cc1ccc(Nc2snc(O)c2/C(N)=N/O)cc1` [Cpd 3], over 500 nM.
For the compound `Cc1ccc(Nc2snc(O)c2C(=N)NCCN2CCOCC2)cc1` [Cpd 4], the IC50 was 100 to 500 nM.
Still for that read-out and setting: to `Cc1ccc(Nc2snc(O)c2C(=N)NN2CCOCC2)cc1` [Cpd 5] belongs 100 to 500 nM; to `N=C(NN1CCOCC1)c1c(O)nsc1Nc1ccc(Oc2ccccc2)cc1` [Cpd 6], 1 to 100 nM; to `Cc1ccc(Nc2snc(O)c2C(=N)NN2CCCCC2)cc1` [Cpd 7], 100 to 500 nM.
As for `Cc1ccc(Nc2snc(O)c2C(=N)N2CCc3ccccc3C2)cc1` [Cpd 8], the IC50 was over 500 nM.
Take `N=C(NCCCCO)c1c(O)nsc1Nc1ccc(Oc2ccccc2)cc1` [Cpd 9]: the IC50 is 1 to 100 nM.
Still for that read-out and setting: for `CCCCCCCNC(=N)c1c(O)nsc1Nc1ccc(Oc2ccccc2)cc1` [Cpd 10] the value was 1 to 100 nM; for `N=C(NC1CCCCC1)c1c(O)nsc1Nc1ccc(Oc2ccccc2)cc1` [Cpd 11], 1 to 100 nM; for `N=C(NC1CCCC1)c1c(O)nsc1Nc1ccc(Oc2ccccc2)cc1` [Cpd 12], 1 to 100 nM.
Consider `N=C(NCCC1=CCCCC1)c1c(O)nsc1Nc1ccc(Oc2ccccc2)cc1` [Cpd 13], for which the IC50 lay in the range of 1 to 100 nM.
For the compound `N=C(NCCc1ccccc1)c1c(O)nsc1Nc1ccc(Oc2ccccc2)cc1` [Cpd 14], the IC50 fell in the range of 100 to 500 nM.
Still for that read-out and setting: for `CC(CNC(=N)c1c(O)nsc1Nc1ccc(Oc2ccccc2)cc1)c1ccccc1` (centres unmarked) [Cpd 15] the value was 1 to 100 nM; for `N=C(NC1CCC1)c1c(O)nsc1Nc1ccc(Oc2ccccc2)cc1` [Cpd 16], 1 to 100 nM; for `N=C(NCCc1cccc(F)c1)c1c(O)nsc1Nc1ccc(Oc2ccccc2)cc1` [Cpd 17], 100 to 500 nM.
`N=C(NCCc1cccs1)c1c(O)nsc1Nc1ccc(Oc2ccccc2)cc1` [Cpd 18]: the IC50 lay within 100 to 500 nM.
As for `N=C(NCC1CC1)c1c(O)nsc1Nc1ccc(Oc2ccccc2)cc1` [Cpd 19], the IC50 is 1 to 100 nM.
The same measure, in the same setting: for `N=C(NCc1ccccc1)c1c(O)nsc1Nc1ccc(Oc2ccccc2)cc1` [Cpd 20] the value was 100 to 500 nM; for `N=C(NCc1ccc(C(F)(F)F)cc1)c1c(O)nsc1Nc1ccc(Oc2ccccc2)cc1` [Cpd 21], 1 to 100 nM.
Same read-out and setting: to `N=C(N[C@@H]1CC2CCC1C2)c1c(O)nsc1Nc1ccc(Oc2ccccc2)cc1` (some centres unmarked) [Cpd 22] belongs 1 to 100 nM; to `N=C(NC1CCCCCC1)c1c(O)nsc1Nc1ccc(Oc2ccccc2)cc1` [Cpd 23], 1 to 100 nM.
Still for that read-out and setting: for `Cn1sc(Nc2ccc(Oc3ccccc3)cc2)c(C(=N)NC2CCCC2)c1=O` [Cpd 24] the value was over 500 nM; for `N=C(NCC1CCCO1)c1c(O)nsc1Nc1ccc(Oc2ccccc2)cc1` (centres unmarked) [Cpd 25], 1 to 100 nM.
On to `N=C(NCCN1CCOCC1)c1c(Nc2ccc(Oc3ccccc3)cc2)s[nH]c1=O` [Cpd 26], for which the IC50 was over 500 nM.
As for `CCCCNC(=N)c1c(O)nsc1Nc1ccc(Oc2ccccc2)cc1` [Cpd 27], the IC50 fell in the range of 100 to 500 nM.
On the same count and under the same terms, for `CC(C)NC(=N)c1c(O)nsc1Nc1ccc(Oc2ccccc2)cc1` [Cpd 28] the value was 1 to 100 nM; for `CC(NC(=N)c1c(O)nsc1Nc1ccc(Oc2ccccc2)cc1)c1ccc(F)cc1` (centres unmarked) [compound 29], 100 to 500 nM.
In the case of `CCOC(=O)N1CCC(NC(=N)c2c(O)nsc2Nc2ccc(Oc3ccccc3)cc2)CC1` [compound 30], the IC50 was in the range of 100 to 500 nM.
The same measure, in the same setting: to `N=C(NCCCO)c1c(O)nsc1Nc1ccc(Oc2ccccc2)cc1` [compound 31] belongs 1 to 100 nM; to `N=C(NCCCCCCO)c1c(O)nsc1Nc1ccc(Oc2ccccc2)cc1` [compound 32], 1 to 100 nM; to `N=C(NCCO)c1c(O)nsc1Nc1ccc(Oc2ccccc2)cc1` [compound 33], 1 to 100 nM.
On the same count and under the same terms, for `C[C@H](NC(=N)c1c(O)nsc1Nc1ccc(Oc2ccccc2)cc1)c1ccccc1` [compound 34] the value was 100 to 500 nM; for `CC(C)CC(C)NC(=N)c1c(O)nsc1Nc1ccc(Oc2ccccc2)cc1` (centres unmarked) [compound 35], 100 to 500 nM.
As for `N=C(NCCOc1ccccc1)c1c(O)nsc1Nc1ccc(Oc2ccccc2)cc1` [compound 36], the IC50 lay in the range of 100 to 500 nM.
As to `N=C(NCC1CCCCC1)c1c(O)nsc1Nc1ccc(Oc2ccccc2)cc1` [compound 37], the IC50 was 1 to 100 nM.
On the same count and under the same terms, for `N=C(NCc1ccccn1)c1c(O)nsc1Nc1ccc(Oc2ccccc2)cc1` [compound 38] the value was 100 to 500 nM; for `N=C(NCCCN1CCCC1=O)c1c(O)nsc1Nc1ccc(Oc2ccccc2)cc1` [compound 39], 1 to 100 nM.
Turning to `N=C(NCC(O)CO)c1c(O)nsc1Nc1ccc(Oc2ccccc2)cc1` (centres unmarked) [compound 40], the IC50 fell in the range of 1 to 100 nM.
`CC(C)(C)CCNC(=N)c1c(O)nsc1Nc1ccc(Oc2ccccc2)cc1` [compound 41]: the IC50 is 100 to 500 nM.
On the same count and under the same terms, for `CC(C)(C)CCNC(=N)c1c(O)nsc1Nc1ccc(Oc2ccccc2)cc1` [compound 42] the value was 1 to 100 nM.
Same read-out and setting: to `CC(C)CCNC(=N)c1nsc(Nc2ccc(Oc3ccccc3)cc2)c1O` [compound 43] belongs 1 to 100 nM.
Still for that read-out and setting: for `N=C(NC1CC1)c1c(O)nsc1Nc1ccc(Oc2ccccc2)cc1` [compound 44] the value was over 500 nM.
In the case of `N=C(NCc1cccc2ccccc12)c1c(O)nsc1Nc1ccc(Oc2ccccc2)cc1` [compound 45], the IC50 was in the range of 1 to 100 nM.
Consider `CC1(C)C2CCC1[C@H](CNC(=N)c1c(O)nsc1Nc1ccc(Oc3ccccc3)cc1)CC2` (some centres unmarked) [compound 46], for which the IC50 was 1 to 100 nM.
For `CC1(C)OCC(CNC(=N)c2c(O)nsc2Nc2ccc(Oc3ccccc3)cc2)O1` (centres unmarked) [compound 47], the IC50 lay within 1 to 100 nM.
Still for that read-out and setting: for `N=C(NCC(c1ccccc1)c1ccccc1)c1c(O)nsc1Nc1ccc(Oc2ccccc2)cc1` [compound 48] the value was 1 to 100 nM; for `CCOCCCNC(=N)c1c(O)nsc1Nc1ccc(Oc2ccccc2)cc1` [compound 49], 1 to 100 nM.

Staying with this assay, now noted: Table 2, Ar1-A contains an amido or indolo group; read-out: IC 50.
`N/C(=N\CC1CCCCC1)c1c(O)nsc1Nc1ccccc1C(=O)NCC1CCCCC1` [E-1]: the IC50 is over 1000 nM.
As to `N=C(NCC1CCCCC1)c1c(O)nsc1Nc1ccc(S(=O)(=O)Nc2ccccc2)cc1` [E-2], the IC50 is over 1000 nM.
The same measure, in the same setting: for `N=C(NCC1CCCCC1)c1c(O)nsc1Nc1ccc(C(=O)Nc2ccccc2)cc1` [E-4] the value was over 1000 nM; for `CC(CO)NC(=N)c1c(O)nsc1Nc1ccc(C(=O)Nc2ccccc2)cc1` (centres unmarked) [E-5], over 1000 nM; for `N=C(NCCCCO)c1c(O)nsc1Nc1ccc(C(=O)Nc2ccccc2)cc1` [E-6], over 1000 nM.
For `CC(C)NC(=N)c1c(O)nsc1Nc1ccc(C(=O)Nc2ccccc2)cc1` [E-7], the IC50 is over 1000 nM.
Same read-out and setting: to `N=C(NCCO)c1c(O)nsc1Nc1ccc(C(=O)Nc2ccccc2)cc1` [E-8] belongs 200 to 1000 nM; to `CC(C)NC(=N)c1c(O)nsc1Nc1ccc(C(=O)NC(C)C)cc1` [E-9], 200 to 1000 nM.
The same measure, in the same setting: for `CC(C)NC(=N)c1c(O)nsc1Nc1ccc(C(=O)N2CCc3ccccc32)cc1` [E-10] the value was 1 to 200 nM.
For `N=C(NCCCO)c1c(O)nsc1Nc1ccc(C(=O)N2CCc3ccccc32)cc1` [E-11], the IC50 is 1 to 200 nM.
The same measure, in the same setting: for `N=C(NCC(O)CO)c1c(O)nsc1Nc1ccc(C(=O)N2CCc3ccccc32)cc1` (centres unmarked) [E-12] the value was 200 to 1000 nM; for `N=C(NCCO)c1c(O)nsc1Nc1ccc(C(=O)N2CCc3ccccc32)cc1` [E-13], over 1000 nM.
Still for that read-out and setting: to `N=C(NCCCCO)c1c(O)nsc1Nc1ccc(C(=O)N2CCc3ccccc32)cc1` [E-14] belongs over 1000 nM.
Still for that read-out and setting: to `N=C(NCCCCO)c1c(O)nsc1Nc1ccc(C(=O)NCCCCO)cc1` [E-15] belongs over 1000 nM; to `CC(CO)NC(=N)c1c(O)nsc1Nc1ccc(C(=O)N2CCc3ccccc32)cc1` (centres unmarked) [E-16], 1 to 200 nM.
As to `CC(CO)NC(=N)c1c(O)nsc1Nc1ccc(C(=O)N2CCN(C)CC2)cc1` (centres unmarked) [E-17], the IC50 was over 1000 nM.
Regarding `CN1CCN(C(=O)c2ccc(Nc3snc(O)c3C(=N)NCCO)cc2)CC1` [E-18], the IC50 is over 1000 nM.
On the same count and under the same terms, for `CC(C)NC(=N)c1c(O)nsc1Nc1ccc(C(=O)N2CCN(C)CC2)cc1` [E-19] the value was over 1000 nM; for `N=C(N)c1c(O)nsc1Nc1ccc(C(=O)N2CCc3cc(Br)ccc32)cc1` [E-20], 1 to 200 nM.
On the same count and under the same terms, to `CNC(=N)c1c(O)nsc1Nc1ccc(C(=O)N2CCc3cc(Cl)ccc32)cc1` [E-21] belongs 200 to 1000 nM; to `CNC(=N)c1c(O)nsc1Nc1ccc(C(=O)N2CCc3cc(F)ccc32)cc1` [E-22], over 1000 nM.

The assay is the same for the next values; noted with them: Table 4, R' is (CH2)1 or 2-G; read-out: IC50.
As for `N=C(NCc1ccccc1)c1c(O)nsc1Nc1ccc(C(=O)c2ccccc2)cc1`, the IC50 fell in the range of 100 to 500 nM.

Values taken from US7652047B2, “Phenylamino isothiazole carboxamidines as MEK inhibitors” (Ardea Biosciences, Inc., priority 2005, dated 2010).
